Counter-ions that a name gives are not always drawn.
Experiments:
Type in all cases: cell-based
[1] = test system: Pseudomonas spec. DSM 115322; test: Study of the synergistic interaction: minimum inhibitory concentrations (MICs) and synergy index in Müller-Hinton broth, microplates; conditions: 48 hours at 30° C.; for Synergy index Qa/QA + Qb/QB: sole agent
Method: The test organism used was a Gram-negative bacterial species from the group of pseudomonads, Pseudomonas spec. DSM 115322. For this purpose, mixtures with different concentrations of the respective actives were prepared and tested for their effect on pseudomonads. The test was run in Müller-Hinton broth MHB with a cell density of 10^6 microbes per ml. The incubation was run in microplates at 30° C. for 48 hours. After 48 hours, the batches were evaluated for turbidity resulting from growth, and optical density was additionally determined photometrically. In this way, the minimum inhibitory concentrations (MICs) of the two actives were determined individually and in combination. The synergism that occurred was represented numerically by calculating the synergy index (SI). The calculation was done according to the standard method of F. C. Kull et al., Applied Microbiology, vol. 9 (1961), p. 538. This involves calculating the synergy index (SI) by the following formula: […] Calculation of the synergy index of guanidine and BIT with respect to Pseudomonas spec.

[2] = test system: Bacteria mixture (Pseudomonas spp. DSM 33933, Pseudomonas aeruginosa DSM 33935, Pseudomonas oleovorans DSM 33936, Pseudomonas spec. DSM 33937, Pseudomonas …); test: Stability of emulsion paint against microbial infestation, inoculated with bacteria mixture, semiquantitative streak evaluation; design: key: 0: No growth; Minimal growth, 1 to 10 colonies visible over the entire streak; 2: Light growth, maximum 100 colonies; Moderate growth, maximum 300 to 400 colonies; Uniform growth, >400 colonies, single colonies still clearly recognizable; 5: Heavy growth, too many colonies to count, but no growth over the entire streak; 6: Full growth, barely any single colonies still apparent, growth over the entire streak; conditions: for Bacterial growth Day 1: directly after inoculation; for Bacterial growth Day 6: incubation at 30° C.
Method: The detergent was a heavy-duty laundry detergent without preservatives (pH 8.1), and the cleaning composition was an all-purpose detergent without preservatives (pH 7.6), each likewise made in the laboratory, without addition of the otherwise usual conventional preservatives. To each paint was added—individually and in combination—particular concentrations of guanidinium hydrochloride and benzisothiazolinone (BIT). The detergent and cleaning composition were admixed with particular concentrations of guanidinium hydrochloride and benzisothiazolinone (BIT). The resultant batches of the paint thus prepared were inoculated with a mixture of various bacteria; the batches of the detergent and cleaning composition thus prepared were inoculated with a yeast mixture. • Pseudomonas spp. (Pseudomonas oleovorans group) DSM 33933 • Pseudomonas aeruginosa DSM 33935 • Pseudomonas oleovorans DSM 33936 • Pseudomonas spec. DSM 33937 • Pseudomonas aeruginosa DSM 33938 The inoculum was added to the respective sample in each inoculation at 2% (v/w) as a fresh cell suspension in a physiological saline solution (0.9% NaCl). The cell count of the inoculum added was 10^9/ml for the bacteria mixture, 10^8/ml for the yeast mixture, consisting in equal parts of the individual bacteria strains or yeast strains. The cell suspension of the bacteria mixture was produced by growing the individual bacteria at 30° C. for 24 h in liquid culture on a shaker. The growth medium used for the bacteria was Müller-Hinton liquid medium. After growing, the individual liquid cultures were centrifuged, and the cells were resuspended in physiological saline solution. In order to adjust the mixture to a total cell count of 10^9/ml, the individual bacteria suspensions, if necessary, were diluted accordingly before being combined with saline solution. The cell count of the inoculum was determined in each case by chamber counting. In examples 2 to 4, the samples were inoculated once with the respective cell suspensions (2% v/w) and the development of the bacteria or yeasts was followed by a semiquantitative evaluation method. In the inoculated samples, microbial infestation was evaluated in each case directly after inoculation on day 1 and on day 6 (emulsion paint) after incubation at 30° C. for a further 5 days, or on day 3 (detergent, cleaning composition) after incubation at 30° C. for a further 2 days. For this purpose, an aliquot was taken from each sample after homogenization using a sterile plastic inoculation loop (10 μl) and streaked evenly on agar plates (tryptic soy agar in the case of bacteria, Sabouraud glucose-agar in the case of yeasts). […] After incubation, the bacterial or yeast colonies that had grown on the agar plates were visually evaluated and quantified according to the following scheme: [table] […]

[3] = test system: Yeast mixture (Pichia manshurica DSM 12249, Rhodotorula mucilaginosa DSM 12248, Candida boidinii DSM 13622, Candida albicans DSM 1386); test: Stability of heavy-duty laundry detergent against microbial infestation, inoculated with yeast mixture, semiquantitative streak evaluation; design: key: 0: No growth; Minimal growth, 1 to 10 colonies visible over the entire streak; 2: Light growth, maximum 100 colonies; Moderate growth, maximum 300 to 400 colonies; Uniform growth, >400 colonies, single colonies still clearly recognizable; 5: Heavy growth, too many colonies to count, but no growth over the entire streak; 6: Full growth, barely any single colonies still apparent, growth over the entire streak; conditions: for Yeast growth Day 1: directly after inoculation; for Yeast growth Day 3: incubation at 30° C.
Method: (§1) The detergent was a heavy-duty laundry detergent without preservatives (pH 8.1), and the cleaning composition was an all-purpose detergent without preservatives (pH 7.6), each likewise made in the laboratory, without addition of the otherwise usual conventional preservatives. To each paint was added—individually and in combination—particular concentrations of guanidinium hydrochloride and benzisothiazolinone (BIT). The detergent and cleaning composition were admixed with particular concentrations of guanidinium hydrochloride and benzisothiazolinone (BIT). The resultant batches of the paint thus prepared were inoculated with a mixture of various bacteria; the batches of the detergent and cleaning composition thus prepared were inoculated with a yeast mixture. • Pichia manshurica DSM 12249 • Rhodotorula mucilaginosa DSM 12248 • Candida boidinii DSM 13622 • Candida albicans DSM 1386 The inoculum was added to the respective sample in each inoculation at 2% (v/w) as a fresh cell suspension in a physiological saline solution (0.9% NaCl). The cell count of the inoculum added was 10^9/ml for the bacteria mixture, 10^8/ml for the yeast mixture, consisting in equal parts of the individual bacteria strains or yeast strains. The cell suspension of the yeast mixture was produced by growing the yeasts on Sabouraud glucose-agar at 25° C. for 48 hours and washing down the cell lawn with physiological saline solution (0.9% NaCl). Further steps for establishment of a cell count of the inoculum suspension of 10^8/ml were effected analogously to the production of the bacteria suspension. In examples 2 to 4, the samples were inoculated once with the respective cell suspensions (2% v/w) and the development of the bacteria or yeasts was followed by a semiquantitative evaluation method. In the inoculated samples, microbial infestation was evaluated in each case directly after inoculation on day 1 and on day 6 (emulsion paint) after incubation at 30° C. for a further 5 days, or on day 3 (detergent, cleaning composition) after incubation at 30° C. for a further 2 days. For this purpose, an aliquot was taken from each sample after homogenization using a sterile plastic inoculation loop (10 μl) and streaked evenly on agar plates (tryptic soy agar in the case of bacteria, Sabouraud glucose-agar in the case of yeasts). The streaked agar plates were then incubated at 30° C. for 48 hours (bacteria) or at 25° C. for 72 hours (yeasts). After incubation, the bacterial or yeast colonies that had grown on the agar plates were visually evaluated and quantified according to the following scheme: [table] Inoculation 2% w/v with a East Mixture, Cell Count 10^8/ml

[4] = test system: Yeast mixture (Pichia manshurica DSM 12249, Rhodotorula mucilaginosa DSM 12248, Candida boidinii DSM 13622, Candida albicans DSM 1386); test: Stability of all-purpose detergent (cleaning composition) against microbial infestation, inoculated with yeast mixture, semiquantitative streak evaluation; design: key to Yeast growth Day 1: 0: No growth; Minimal growth, 1 to 10 colonies visible over the entire streak; 2: Light growth, maximum 100 colonies; Moderate growth, maximum 300 to 400 colonies; Uniform growth, >400 colonies, single colonies still clearly recognizable; 5: Heavy growth, too many colonies to count, but no growth over the entire streak; 6: Full growth, barely any single colonies still apparent, growth over the entire streak; conditions: for Yeast growth Day 1: directly after inoculation; for Yeast growth Day 3: incubation at 30° C.
Method: as §1, with “(w/v)” for “w/v”, “Yeast” for “a East”

[5] = all-purpose detergent +100 ppm BIT
[6] = emulsion paint +6000 ppm guanidine hydrochloride (3708 ppm guanidine)
[7] = detergent +8000 ppm guanidine hydrochloride (4944 ppm guanidine)
[8] = all-purpose detergent +8000 ppm guanidine hydrochloride (4944 ppm guanidine)

| Compound | Qb (BIT): concentration of BIT as the sole agent that shows an endpoint (QB, MIC) ([1]; BIT alone (0 ppm guanidine), MHB, 10^6 microbes per ml) | Synergy index Qa/QA + Qb/QB [1] | Bacterial growth Day 1 ([2]; emulsion paint +500 ppm BIT) | Bacterial growth Day 6 ([2]; emulsion paint +500 ppm BIT) | Yeast growth Day 1 ([3]; detergent +100 ppm BIT) | Yeast growth Day 3 ([3]; detergent +100 ppm BIT) | Yeast growth Day 1 [4, 5] | Yeast growth Day 3 [4, 5] | Qa (guanidine): concentration of guanidine as the sole agent that shows an endpoint (QA, MIC) ([1]; guanidine alone (0 ppm BIT), added as guanidine hydrochloride, MHB) | Bacterial growth Day 1 [2, 6] | Bacterial growth Day 6 [2, 6] | Yeast growth Day 1 [3, 7] | Yeast growth Day 3 [3, 7] | Yeast growth Day 1 [4, 8] | Yeast growth Day 3 [4, 8] |
| --- | --- | --- | --- | --- | --- | --- | --- | --- | --- | --- | --- | --- | --- | --- | --- |
| O=c1[nH]sc2ccccc12 [BIT, 1,2-benzisothiazolin-3-one] | 300 ppm | 1.00 | 6 | 6 | 6 | 4 (Uniform growth, >400 colonies, single colonies still clearly recognizable) | 6 | 4 (Uniform growth, >400 colonies, single colonies still clearly recognizable) | – | – | – | – | – | – | – |
| N=C(N)N [guanidine] | – | 1.00 | – | – | – | – | – | – | 9269 ppm | – | – | – | – | – | – |
| N=C(N)N [guanidine hydrochloride] | – | – | – | – | – | – | – | – | – | 6 | 6 | 6 | 6 | 6 | 4 (Uniform growth, >400 colonies, single colonies still clearly recognizable) |

— patent US20260262642A1, “Compositions Containing Guanidine and 1,2-Benzisothiazoline-3-On” (priority 2023, published 2026)
